The test system of data set [1] is TNF-α. In words: Semi-quantitative PCR kidney, TNF-α. Type of data set: in vivo. To be noted: HF diet mice + AC261066. From the text:
(§1) WT male C57/BL6 male mice were maintained on either a standard laboratory chow-fed diet (CFD) with 13% kcal fat, (diet #5053, Lab Diet, Inc, St. Louis, Mo.) or a high fat, western style diet (HFD) with 60% kcals from fat, (diet #58126, Lab Diet, Inc., St. Louis, Mo.) for 4 months. One month after the start of the high fat diet treatment, the high fat diet group was further split into 2 groups for 3 months: i) high fat diet and the drinking water containing 1% DMSO; ii) high fat diet and the drinking water containing 1.5 mg/100 ml AC261066, a specific RARβ agonist. Then mice were sacrificed by cervical dislocation. Blood and various tissue samples were harvested.
(§2) Total RNA was extracted from mouse tissues using TRIzol reagent (Life technologies) and (1 μg) was used to synthesize cDNA. cDNA synthesis was performed at 42° C. for 1 h in a final volume of 20 μl using qScript (Quanta, MD). Semi-quantitative PCR were performed Taq DNA polymerase (Invitrogen. CA). Three step PCR was run as follows: 94° C. for 30 s, 58-64° C. for 45 s for primer annealing and 72° C. for 1 min for primer extension. The number of cycles for each primer pair for amplification in the linear range was determined experimentally. PCR products were resolved on 2% agarose gels and visualized by staining with ehtidium bromide. Primers for gene expression used were as follows: […]

Another data set relates to MCP-1. In words: Semi-quantitative PCR liver, MCP-1. To be noted: HF diet mice + AC261066 or CD1530. Type of data set: in vivo.
From the text: as §1
as §2, with “(Invitrogen,” for “(Invitrogen.”, “resolved” for “resolved on”

Data set [2] has as its system α-SMA. In words: α-SMA immunofluorescence of kidney sections. Type of data set: in vivo. To be noted: HF diet mice + AC261066.
From the text: as §1
(§3) Fresh mouse kidney samples were embedded in optimal cutting temperature (OCT) medium and immediately frozen to −70 centigrade. Cryosections were then fixed in 4% formaldehyde for 1 hr at room temp. Slides were then rinsed three times in deionized water (dH2O) for 30 s, followed by treatment with 0.5% Triton X-100 in PBS for 5 min. Sections were then washed three times with PBS for 5 min. Samples were with incubated 2% bovine serum albumin (BSA) for 30 min at room temperature to block for unspecific antibody binding. Following blocking, sections were washed three times in PBS and incubated with mouse monoclonal antibody against α-SMA (1:500) (Dako, Inc) for 24 h at 4° C. […]

Another data set concerns LRAT. In words: Semi-quantitative PCR kidney, LRAT. Type of data set: in vivo. To be noted: HF diet mice + AC261066.
From the text: as §1, §2

The next data set concerns renal lipid accumulation. In words: Hematoxylin and eosin staining of kidney sections. Type of data set: in vivo. To be noted: HF diet mice + AC261066 or CD1530; vs HF-vehicle.
From the text: as §1
At sacrifice, fresh mouse liver samples were fixed in 4% formaldehyde solution for 24 hr and embedded in paraffin blocks. Kidney paraffin sections were cut 5 microns thick and mounted on glass slides and stained with hematoxylin and eosin (H and E) using standard protocols.

In a further data set the test system is RARβ2. In words: Semi-quantitative PCR kidney, RARβ2. Type of data set: in vivo. To be noted: HF diet mice + AC261066.
From the text: as §1, §2

The nature of data set [3]: Serum triglyceride level measurement. Type of data set: in vivo, mice. To be noted: HF+AC261066 feeding vs CF controls.
From the text: as §1
The analysis of serum triglyceride levels was carried out using a bichromatic assay at the Laboratory of Comparative Pathology of the Memorial Sloan-Kettering Cancer Center. Chow-fed diet (CFD) n=2; high fat diet (HFD) n=3; high fat diet+AC261066 (HFDAC) n=5.

The test system of data set [4] is TNF-α. As to the kind of experiment: Semi-quantitative PCR liver, TNF-α. Type of data set: in vivo. To be noted: HF diet mice + AC261066 or CD1530.
From the text: as §1
as §2, with “(Invitrogen,” for “(Invitrogen.”, “resolved” for “resolved on”

Another data set deals with hepatic lipids. In words: Oil red O staining of liver sections. Type of data set: in vivo. To be noted: HF diet mice + AC261066 or CD1530; vs HF-vehicle.
From the text: as §1
as §3, with “Staining. Fresh” for “Fresh”, “liver” for “kidney”

The next data set concerns 4-hydroxynonenal (4-HNE). As to the kind of experiment: 4-HNE staining of liver sections. Type of data set: in vivo, mice. To be noted: HF diet + AC261066 vs HF diet group.
From the text: as §1
Paraffin-embedded sections (from two to four mice per group) were deparaffinized and rehydrated, and antigen retrieval was performed using an antigen unmasking solution (Vector Laboratories, H-3300). After quenching endogenous peroxidase with 3% H2O2, the tissue sections were blocked with the blocking reagent (from the M.O.M. kit from Vector Laboratories). Then, tissue sections were incubated with a 4-HNE antibody (1:400; mouse monoclonal antibody; Abcam, ab48506) overnight at 4° C. The sections were then incubated with secondary antibodies (1:200, anti-mouse IgG from the M.O.M kit). As a negative control, sections were stained without incubation with primary antibodies. […]

The subject of the next data set is renal lipids. As to the kind of experiment: Oil red O staining of kidney sections. Type of data set: in vivo. To be noted: HF diet mice + AC261066 vs HF vehicle.
The next data set has as its system alpha-SMA. As to the kind of experiment: Semi-quantitative PCR liver, alpha-SMA. To be noted: HF diet mice + AC261066 or CD1530; vs HF-vehicle. Type of data set: in vivo.
From the text: as §1
as §2, with “(Invitrogen,” for “(Invitrogen.”, “resolved” for “resolved on”

Data set [5] relates to α-SMA. As to the kind of experiment: α-SMA immunofluorescence of liver sections (hepatic stellate cell activation). Type of data set: in vivo. To be noted: HF diet mice + AC261066 or CD1530, vs HF-vehicle.
From the text: as §1
Staining. Fresh mouse liver samples were embedded in optimal cutting temperature (OCT) medium and immediately frozen to −70 centigrade. Cryosections were then fixed in 4% formaldehyde for 1 hr at room temp. Slides were then rinsed three times in deionized water (dH2O) for 30 s, followed by treatment with 0.5% Triton X-100 in PBS for 5 min. Sections were then washed three times with PBS for 5 min. Samples were with incubated 2% bovine serum albumin (BSA) for 30 min at room temperature to block for unspecific antibody binding. Following blocking, sections were washed three times in PBS and incubated with mouse monoclonal antibody against α-SMA (1:500) (Dako, Inc) for 24 h at 4° C. After 24 h sections were washed three times in PB and incubated with Alexa-Flour-488 anti-mouse secondary anti-body (1:500) (Invitrogen, Inc) for 30 min at room temperature. Sections were then washed three times in PBS and incubated with working strength oil-red O solution for 30 minutes at room temperature. Sections were then rinsed for 30 minutes under running tap water and cover-slipped with Vectashield hard mount plus DAPI (Vector Labs, Inc).

“Also recorded” adds a separate entry of the source.

As for `CCCCOCCOc1nc(-c2ccc(C(=O)O)c(F)c2)sc1C` [AC261066], in the data set on TNF-α [1], the “mRNA levels of TNF-α in kidney” value was “reduces the levels of TNF-alpha”. The “mRNA levels of MCP-1 in liver” value in the data set on MCP-1 was “decreases levels of inflammatory proteins MCP-1 and TNF alpha”. For the same compound, the “α-SMA positive areas in kidney” value with α-SMA [2] is reported as “diminished expression of the fibrogenic protein alpha-SMA; also recorded: not observed”. Moreover, the “LRAT mRNA levels in kidney” value in the data set with LRAT was “restores RAR beta and LRAT mRNA levels”. The “renal lipid infiltration/accumulation (H and E)” value in the data set with renal lipid accumulation is listed as “diminished renal lipid accumulation; also recorded: markedly decreased renal lipid infiltration”. For the same compound, the “RARβ2 mRNA levels in kidney” value with RARβ2 is “restores RAR beta and LRAT mRNA levels; also recorded: did not have decreased RARβ2 mRNA levels”. Besides, in [3], the serum triglyceride levels entry is “does not increase triglyceride levels; also recorded: does not affect serum triglyceride levels”. In addition, in the data set on TNF-α [4], the “mRNA levels of TNF-α in liver” value was “significantly diminish”. Besides, in the data set on hepatic lipids, the “hepatic lipid accumulation (oil red O)” value is recorded as “marked diminished hepatic lipid accumulation”. The “4-HNE levels (oxidative stress) in liver” value in the data set on 4-hydroxynonenal (4-HNE) is “reduces oxidative stress and ROS; also recorded: lower 4-HNE levels than those from the high fat diet group”. In the data set on renal lipids, the “kidney lipid accumulation (oil red O)” value was “comparably less oil red o positive areas”. In the data set on alpha-SMA, the “hepatic mRNA levels of alpha-SMA” value is given as “also decreased”. The “α-SMA positive staining in liver (HSC activation)” value in the data set with α-SMA [5] is “diminished activation of hepatic stellate cells; also recorded: decreased expression of α-SMA; also recorded: decreased intensity and regions of α-SMA positive staining”; in the data set on α-SMA [5] (listed as AC261011), “α-SMA protein is decreased”.

The values are drawn from patent US11207277B2, “Methods of treating diseases associated with high-fat diet and vitamin a deficiency using retinoic acid receptor agonists” (Cornell University, priority 2013, dated 2021).
